Assay results taken from patent publication US20120274239A1, “METHOD OF MANUFACTURING ORGANIC ELECTROLUMINESCENCE DISPLAY DEVICE AND ELECTRONIC EQUIPMENT INCLUDING ORGANIC ELECTROLUMINESCENCE DISPLAY DEVICE MANUFACTURED BY THE MANUFACTURING METHOD” (CANON KABUSHIKI KAISHA, priority 2011, published 2012).

Legend:
[1] = etching rate (dissolution rate) of a deposited layer in the IPA/water mixed solvent; assay type: physicochemical; settings: IPA 60 wt %; for etching rate: layer of the compound, polar solvent: IPA/water mixed solvent
Text: In the present invention, a larger etching rate means a higher dissolution rate. In addition, a larger etching rate means a higher solubility of a layer having a material of interest in the solvent (polar solvent).
FIG. 3 is a graph illustrating thickness changes in the compound 1 and the compound A2 over an etching time. Here, FIG. 3 illustrates the results of the etching of the respective layers when a mixed solvent obtained by mixing isopropyl alcohol (IPA) and water so that IPA may account for 60 wt % (hereinafter, sometimes referred to as “IPA/water mixed solvent”) is used as a polar solvent.
On the other hand, the thickness of a layer (layer B) formed of the compound A2 as a heterocyclic compound reduces over time. When the etching rates of the respective layers are calculated with their etching conditions made identical to each other, the etching rate of the layer A is 0.008 nm/sec but the etching rate of the layer B is 0.87 nm/sec, that is, a ratio of the latter to the former is about 100.
Here, a ratio (n) between the etching rates of the uppermost layer (layer A) of the organic compound layer and the lowermost layer (layer B) of the release layer by the polar solvent used upon removal of the release layer under the same temperature conditions can be represented like the following equation.
Next, the photosensitive resin layer 41 was removed by performing dry etching with oxygen as a reactant gas under the conditions of a flow rate of 20 sccm, a pressure of 8 Pa, and an output of 150 W (FIG. 2L). Next, the release layer 30 was removed with a mixed solvent obtained by mixing water and IPA so that an IPA concentration was 60 wt % (FIG. 2M). It should be noted that as the etching rate of the compound (phenanthroline derivative represented by the formula (2)) constituting the release layer 30 in this example was 0.9 nm/sec, the release layer 30 was removed through immersion in the mixed solvent for 600 seconds. Next, vacuum heating was performed at 80° C. so that the solvent remaining on the organic compound layer was removed. It should be noted that the etching rate of the compound represented by the formula (1) serving as the uppermost layer of the organic compound layer placed in each sub-pixel for the polar solvent used for removing the release layer is about 0.0045 nm/sec, which is sufficiently small as compared with the etching rate of the release layer 30.

[2] = solubility in the IPA/water mixed solvent (FIG. 4); assay type: physicochemical; settings: IPA/water mixed solvent having an IPA concentration of 80 wt %
Text: The solubility of a compound as a constituent material for each layer in the IPA/water mixed solvent varies depending on the weight ratio of IPA in the mixed solvent. FIG. 4 is a graph illustrating the solubilities of the compound 1 (condensed polycyclic hydrocarbon compound) and the compound A2 (heterocyclic compound) in the IPA/water mixed solvent (polar solvent). Here, in the graph of FIG. 4, the axis of abscissa indicates the weight percent concentration of IPA in the IPA/water mixed solvent, and the axis of ordinate indicates the amount of the condensed polycyclic hydrocarbon compound or heterocyclic compound to dissolve in 1 g of the solvent.

| SMILES | etching rate [1] [nm/s] | also measured |
| --- | --- | --- |
| O=C1c2ccccc2OC2C=CC(c3cccc(-c4cccc(-c5cc(-c6cccc(-c7ccccc7)c6)cc(-c6cccc(-c7ccccc7)c6)c5)c4)c3)=CC12 (stereo not drawn) [compound Cl] | 1.5 | – |
| CC1(C)c2cc(-c3ccc4ccc5cccc6ccc3c4c56)ccc2-c2ccc(-c3ccc4ccc5cccc6ccc3c4c56)cc21 [compound 1] | 0.008 | etching rate ([1]; listed as formula (1)): about 0.0045 nm/sec; amount to dissolve in 1 g of the solvent [2]: 5 µg |
| CC(C)(C)c1cc2ccc3ccc(B4OC(C)(C)C(C)(C)O4)c4ccc(c1)c2c34 [compound D8] | 3.0 | – |
| CC1(C)c2ccccc2-c2ccc(-c3ccc4ccc5ccc(-c6ccc7c(c6)C(C)(C)c6ccccc6-7)nc5c4n3)cc21 [compound A2] | 0.87 | etching rate ratio (n) of layer B (release layer) to layer A (uppermost organic compound layer) ([1]; compound A2 layer versus compound 1 layer, IPA/water mixed solvent, identical etching conditions): about 100; etching rate ([1]; listed as formula (2)): 0.9 nm/s; amount to dissolve in 1 g of the solvent [2]: 73 µg |
| c1ccc(-c2cc(-c3ccccc3)cc(-c3cccc(-c4cccc(-c5ccc6c7ccccc7c7ccccc7c6c5)c4)c3)c2)cc1 [compound B1] | 1.3 | – |
| c1ccc(-n2c(-c3cc(-c4nc5ccccc5n4-c4ccccc4)cc(-c4nc5ccccc5n4-c4ccccc4)c3)nc3ccccc32)cc1 [compound A7] | 1.6 | – |
| O=S(=O)(Oc1ccc2cc(-c3ccc4ccccc4c3)ccc2c1)C(F)(F)F [compound D6] | 2.5 | – |
